Experimental data published in patent US20230310654A1 (priority 2020, published 2023).

Legend:
[1] = system: male cynomolgus monkeys; conditions: cynomolgus monkey, in vivo
[2] = system: juvenile mice; conditions: mouse, in vivo
[3] = system: CBE mouse model; conditions: in vivo

Row | Compound | effect on safety or biodistribution of PR001A [1] | lethality (mice died by P27) [2] | body weight ([2]; ip) | adverse effects in peripheral tissues [3] | inhibition of PR001A-encoded and endogenous GCase activity by CBE treatment [3] | reduction of effective GCase activity in tissues following treatment with CBE [3]
1 | CO[C@H]1C[C@@H]2CC[C@@H](C)[C@@](O)(O2)C(=O)C(=O)N2CCCC[C@H]2C(=O)O[C@H]([C@H](C)C[C@@H]2CC[C@@H](O)[C@H](OC)C2)CC(=O)[C@H](C)/C=C(\C)[C@@H](O)[C@@H](OC)C(=O)[C@H](C)C[C@H](C)/C=C/C=C/C=C/1C [rapamycin] | did not appear to have any effect | – | – | – | – | –
2 | conduritol-β-epoxide [CBE] | – | 5 of the 8 | failure to gain weight | No adverse effects | approximately 50% | up to 60%
